Measured values taken from PubChem BioAssay AID248 (DTP/NCI, 2004).
Several values for one entry are separate records, joined by “and”; a condition that tells them apart may be missing. Equal entries are not always repeated. Inconclusive results and toxic doses are left out.

Tested on: L1210 leukemia ip in BDF1 mice, survival T/C
Test: NCI In Vivo Anticancer Drug Screen. Data for tumor model L1210 Leukemia (intraperitoneal) in B6D2F1 (BDF1) mice
Details: endpoint: mean survival time, higher = longer survival
Procedure, shortened: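 Survival endpoint. Drug-treated group vs vehicle group, expressed as T divided by C. Tumor passaged by transplantation.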

[1] = dose: 100.0 mg/kg/injection, schedule: Q04DX003 (ip), vehicle: saline with Tween-80
[2] = dose: 200.0 mg/kg/injection, schedule: Q04DX003 (ip), vehicle: saline with Tween-80
[3] = dose: 400.0 mg/kg/injection, schedule: Q04DX003 (ip), vehicle: saline with Tween-80
[4] = dose: 200.0 mg/kg/injection, schedule: Q01DX009 (ip), vehicle: saline with Tween-80
[5] = dose: 400.0 mg/kg/injection, schedule: Q01DX009 (ip), vehicle: saline with Tween-80

In the case of Cn1c(CCCC(=O)O)nc2cc(N(CCCl)CCCl)ccc21, the T/C (dose: 2.5 mg/kg/injection, schedule: Q01DX001 (ip), vehicle: other) is reported as 101 % of control, the T/C (dose: 2.5 mg/kg/injection, schedule: Q01DX009 (ip), vehicle: other) is reported as 111 % of control and the T/C (dose: 4.37 mg/kg/injection, schedule: Q01DX001 (ip), vehicle: saline) is reported as 106 % of control. The T/C (dose: 4.37 mg/kg/injection, schedule: Q04DX003 (ip), vehicle: saline) was 115 % of control, the T/C (dose: 5.0 mg/kg/injection, schedule: Q01DX001 (ip), vehicle: other) was 109 % of control and the T/C (dose: 5.0 mg/kg/injection, schedule: Q01DX009 (ip), vehicle: Klucel (hydroxypropylcellulose) (HPC)) was 117 % of control. For the same compound, the T/C (dose: 5.0 mg/kg/injection, schedule: Q01DX009 (ip), vehicle: other) was 117 % of control, the T/C (dose: 5.0 mg/kg/injection, schedule: Q04DX003 (ip), vehicle: other) was 120 % of control and the T/C (dose: 6.6 mg/kg/injection, schedule: Q01DX009 (ip), vehicle: Klucel (hydroxypropylcellulose) (HPC)) was 110 % of control. The T/C (dose: 8.75 mg/kg/injection, schedule: Q01DX001 (ip), vehicle: saline) was 117 % of control, the T/C (dose: 8.75 mg/kg/injection, schedule: Q04DX003 (ip), vehicle: saline) was 123 % of control and the T/C (dose: 10.0 mg/kg/injection, schedule: Q01DX001 (ip), vehicle: other) was 111 % of control and 124 % of control. For the same compound, the T/C (dose: 10.0 mg/kg/injection, schedule: Q01DX009 (ip), vehicle: acetone) was 114 % of control, the T/C (dose: 10.0 mg/kg/injection, schedule: Q01DX009 (ip), vehicle: other) was 120 % of control and the T/C (dose: 10.0 mg/kg/injection, schedule: Q04DX003 (ip), vehicle: Klucel (hydroxypropylcellulose) (HPC)) was 117 % of control. For the same compound, the T/C (dose: 10.0 mg/kg/injection, schedule: Q04DX003 (ip), vehicle: other) was 118 % of control, the T/C (dose: 12.5 mg/kg/injection, schedule: Q01DX001 (ip), vehicle: saline) was 116 % of control and the T/C (dose: 17.5 mg/kg/injection, schedule: Q01DX001 (ip), vehicle: saline) was 116 % of control. For the same compound, the T/C (dose: 17.5 mg/kg/injection, schedule: Q04DX003 (ip), vehicle: saline) was 116 % of control, the T/C (dose: 20.0 mg/kg/injection, schedule: Q01DX001 (ip), vehicle: carboxymethylcellulose (CMC)) was 117 % of control and the T/C (dose: 20.0 mg/kg/injection, schedule: Q01DX001 (ip), vehicle: other) was 122 % of control. For the same compound, the T/C (dose: 20.0 mg/kg/injection, schedule: Q01DX009 (ip), vehicle: Klucel (hydroxypropylcellulose) (HPC)) was 117 % of control, the T/C (dose: 20.0 mg/kg/injection, schedule: Q01DX009 (ip), vehicle: acetone) was 110 % of control and the T/C (dose: 20.0 mg/kg/injection, schedule: Q04DX003 (ip), vehicle: Klucel (hydroxypropylcellulose) (HPC)) was 119 % of control. The T/C (dose: 20.0 mg/kg/injection, schedule: Q04DX003 (ip), vehicle: other) was 118 % of control, the T/C (dose: 25.0 mg/kg/injection, schedule: Q01DX001 (ip), vehicle: other) was 119 % of control and the T/C (dose: 25.0 mg/kg/injection, schedule: Q01DX001 (ip), vehicle: saline) was 115 % of control. For the same compound, the T/C (dose: 25.0 mg/kg/injection, schedule: Q01DX009 (ip), vehicle: Klucel (hydroxypropylcellulose) (HPC)) was 89 % of control, the T/C (dose: 26.4 mg/kg/injection, schedule: Q04DX003 (ip), vehicle: saline) was 124 % of control and the T/C (dose: 35.0 mg/kg/injection, schedule: Q01DX001 (ip), vehicle: Klucel (hydroxypropylcellulose) (HPC)) was 115 % of control. The T/C (dose: 40.0 mg/kg/injection, schedule: Q01DX001 (ip), vehicle: carboxymethylcellulose (CMC)) was 117 % of control, the T/C (dose: 40.0 mg/kg/injection, schedule: Q01DX009 (ip), vehicle: Klucel (hydroxypropylcellulose) (HPC)) was 87 % of control and the T/C (dose: 40.0 mg/kg/injection, schedule: Q01DX009 (ip), vehicle: other) was 88 % of control. The T/C (dose: 40.0 mg/kg/injection, schedule: Q04DX003 (ip), vehicle: other) was 115 % of control and 123 % of control, the T/C (dose: 40.0 mg/kg/injection, schedule: Q04DX003 (ip), vehicle: saline) was 119 % of control and the T/C (dose: 50.0 mg/kg/injection, schedule: Q01DX001 (ip), vehicle: Klucel (hydroxypropylcellulose) (HPC)) was 123 % of control. For the same compound, the T/C (dose: 50.0 mg/kg/injection, schedule: Q01DX001 (ip), vehicle: other) was 156 % of control, the T/C (dose: 75.0 mg/kg/injection, schedule: Q01DX001 (ip), vehicle: Klucel (hydroxypropylcellulose) (HPC)) was 112 % of control and the T/C (dose: 75.0 mg/kg/injection, schedule: Q01DX001 (ip), vehicle: other) was 110 % of control. The T/C (dose: 80.0 mg/kg/injection, schedule: Q01DX001 (ip), vehicle: carboxymethylcellulose (CMC)) was 112 % of control, the T/C (dose: 80.0 mg/kg/injection, schedule: Q01DX001 (ip), vehicle: other) was 114 % of control and the T/C (dose: 80.0 mg/kg/injection, schedule: Q04DX003 (ip), vehicle: other) was 87 % of control and 91 % of control.
For OCCSC(SCCO)=C(SCCO)SCCO, the T/C (dose: 100.0 mg/kg/injection, schedule: Q01DX009 (ip), vehicle: Klucel (hydroxypropylcellulose) (HPC)) was 105 % of control, the T/C (dose: 100.0 mg/kg/injection, schedule: Q04DX003 (ip), vehicle: Klucel (hydroxypropylcellulose) (HPC)) was 97 % of control and the T/C (dose: 200.0 mg/kg/injection, schedule: Q01DX009 (ip), vehicle: Klucel (hydroxypropylcellulose) (HPC)) was 102 % of control. For the same compound, the T/C (dose: 200.0 mg/kg/injection, schedule: Q04DX003 (ip), vehicle: Klucel (hydroxypropylcellulose) (HPC)) was 92 % of control, the T/C (dose: 400.0 mg/kg/injection, schedule: Q01DX009 (ip), vehicle: Klucel (hydroxypropylcellulose) (HPC)) was 96 % of control and the T/C (dose: 400.0 mg/kg/injection, schedule: Q04DX003 (ip), vehicle: Klucel (hydroxypropylcellulose) (HPC)) was 94 % of control.
With C=C(C(=O)O)C(=O)O the T/C (dose: 50.0 mg/kg/injection, schedule: Q01DX009 (ip), vehicle: saline) was 102 % of control, the T/C (dose: 100.0 mg/kg/injection, schedule: Q01DX009 (ip), vehicle: saline) was 116 % of control and the T/C [1] was 97 % of control. For the same compound, the T/C (dose: 200.0 mg/kg/injection, schedule: Q01DX009 (ip), vehicle: saline) was 100 % of control and the T/C [2] was 106 % of control.
With Oc1ccccc1OB(Oc1ccccc1O)N(CCCl)CCCl the T/C (dose: 100.0 mg/kg/injection, schedule: Q01DX001 (ip), vehicle: other) was 111 % of control.
For O=[N+]([O-])c1ccc2c(c1)/C(=C1/c3cc(Br)ccc3-c3ccc([N+](=O)[O-])cc31)c1cc(Br)ccc1-2, the T/C [1] was 87 % of control, the T/C [2] was 97 % of control and the T/C [3] was 92 % of control.
For CC1=NN(c2ccccc2)C(=O)C1N=Nc1ccc(S(N)(=O)=O)cc1 (stereo not given), the T/C (dose: 100.0 mg/kg/injection, schedule: Q01DX001 (ip), vehicle: carboxymethylcellulose (CMC)) was 95 % of control, the T/C (dose: 200.0 mg/kg/injection, schedule: Q01DX001 (ip), vehicle: carboxymethylcellulose (CMC)) was 93 % of control and the T/C (dose: 400.0 mg/kg/injection, schedule: Q01DX001 (ip), vehicle: carboxymethylcellulose (CMC)) was 93 % of control.
With CCOC(=O)CCCN(c1sc(C)c(-c2ccccc2)c1C(=O)OCC)S(=O)(=O)c1ccc(C)cc1 the T/C (dose: 25.0 mg/kg/injection, schedule: Q01DX009 (ip), vehicle: saline with Tween-80) was 93 % of control, the T/C (dose: 50.0 mg/kg/injection, schedule: Q01DX009 (ip), vehicle: saline with Tween-80) was 93 % of control and the T/C (dose: 50.0 mg/kg/injection, schedule: Q04DX003 (ip), vehicle: saline with Tween-80) was 98 % of control. For the same compound, the T/C [1] was 104 % of control, the T/C [4] was 90 % of control and the T/C [2] was 97 % of control. For the same compound, the T/C [5] was 90 % of control and the T/C [3] was 87 % of control.
In the case of CN(C)c1ccc(S(=O)(=O)c2ccc(N(C)C)c([N+](=O)[O-])c2)cc1[N+](=O)[O-], the T/C (dose: 100.0 mg/kg/injection, schedule: Q04DX002 (ip), vehicle: DMSO) is reported as 107 % of control, the T/C (dose: 200.0 mg/kg/injection, schedule: Q04DX002 (ip), vehicle: DMSO) is reported as 103 % of control and the T/C (dose: 400.0 mg/kg/injection, schedule: Q04DX002 (ip), vehicle: DMSO) is reported as 103 % of control.
For O=C(O)CNC(=O)C(Br)Cc1ccccc1 (stereo not given), the T/C (dose: 100.0 mg/kg/injection, schedule: Q01DX009 (ip), vehicle: saline with Tween-80) was 96 % of control, the T/C [4] was 89 % of control and the T/C [5] was 89 % of control.
O=S(=O)(Nc1ccc2ccccc2c1)c1ccccc1 was tested, and the T/C (dose: 100.0 mg/kg/injection, schedule: Q01DX001 (ip), vehicle: saline with Tween-80) was 103 % of control, the T/C (dose: 200.0 mg/kg/injection, schedule: Q01DX001 (ip), vehicle: saline with Tween-80) was 97 % of control and the T/C (dose: 400.0 mg/kg/injection, schedule: Q01DX001 (ip), vehicle: saline with Tween-80) was 97 % of control.
For O=c1[nH]c2cc(Cl)ccc2c2c(Cl)cccc12, the T/C (dose: 75.0 mg/kg/injection, schedule: Q01DX001 (ip), vehicle: carboxymethylcellulose (CMC)) was 91 % of control, the T/C (dose: 150.0 mg/kg/injection, schedule: Q01DX001 (ip), vehicle: carboxymethylcellulose (CMC)) was 91 % of control and the T/C (dose: 300.0 mg/kg/injection, schedule: Q01DX001 (ip), vehicle: carboxymethylcellulose (CMC)) was 96 % of control.
